Test results taken from paper PMC9448872 (Frontiers in Cell and Developmental Biology, 2022).

Assays:
[1] = test system: C76 cells; assay: Transwell migration assay; details: Transwells coated with 0.5 μg/ml LAP, 16 h, vehicle control 547 ± 128, p < 0.05
[2] = molecular target: T1, αvβ6 (Homo sapiens, UniProt P06756+P18564); details: cited from earlier work
T1 construct: endogenous in cells; host or cells: panel of breast, pancreas and lung cell lines (C76, C102, C139, H322M, H441, H358, MCF10A, MCF10CA1α, MDAMB468, BT20, HPDE, NHBE)
T1 sequence (P06756 31-889 limits assumed): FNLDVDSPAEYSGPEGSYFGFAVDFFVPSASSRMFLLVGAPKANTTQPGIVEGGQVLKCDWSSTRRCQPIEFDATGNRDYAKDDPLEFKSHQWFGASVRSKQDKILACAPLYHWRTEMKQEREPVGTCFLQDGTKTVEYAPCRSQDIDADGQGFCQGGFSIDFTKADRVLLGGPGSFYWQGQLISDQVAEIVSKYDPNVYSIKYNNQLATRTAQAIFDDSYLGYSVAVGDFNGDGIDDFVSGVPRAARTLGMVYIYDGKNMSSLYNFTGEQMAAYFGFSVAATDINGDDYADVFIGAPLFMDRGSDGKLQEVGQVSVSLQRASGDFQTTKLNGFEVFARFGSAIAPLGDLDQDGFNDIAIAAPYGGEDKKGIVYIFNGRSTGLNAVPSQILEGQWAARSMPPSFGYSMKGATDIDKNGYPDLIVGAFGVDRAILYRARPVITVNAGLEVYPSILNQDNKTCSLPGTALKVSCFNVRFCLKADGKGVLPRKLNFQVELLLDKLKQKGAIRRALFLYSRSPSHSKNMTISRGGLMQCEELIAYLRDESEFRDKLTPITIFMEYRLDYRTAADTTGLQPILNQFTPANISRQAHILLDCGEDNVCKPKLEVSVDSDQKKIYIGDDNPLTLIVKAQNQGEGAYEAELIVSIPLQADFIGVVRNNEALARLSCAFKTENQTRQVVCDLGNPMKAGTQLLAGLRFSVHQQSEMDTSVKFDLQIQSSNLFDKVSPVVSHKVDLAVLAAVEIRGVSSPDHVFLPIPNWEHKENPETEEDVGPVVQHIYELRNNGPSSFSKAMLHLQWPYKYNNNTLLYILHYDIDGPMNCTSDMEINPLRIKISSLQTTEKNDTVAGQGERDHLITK
T1 sequence (P06756 891-1048 limits assumed): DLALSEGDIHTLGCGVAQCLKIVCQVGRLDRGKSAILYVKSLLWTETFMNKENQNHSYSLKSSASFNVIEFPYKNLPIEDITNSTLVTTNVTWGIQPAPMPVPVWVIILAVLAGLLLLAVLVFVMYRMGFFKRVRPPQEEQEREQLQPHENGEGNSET
T1 sequence (P18564 22-788): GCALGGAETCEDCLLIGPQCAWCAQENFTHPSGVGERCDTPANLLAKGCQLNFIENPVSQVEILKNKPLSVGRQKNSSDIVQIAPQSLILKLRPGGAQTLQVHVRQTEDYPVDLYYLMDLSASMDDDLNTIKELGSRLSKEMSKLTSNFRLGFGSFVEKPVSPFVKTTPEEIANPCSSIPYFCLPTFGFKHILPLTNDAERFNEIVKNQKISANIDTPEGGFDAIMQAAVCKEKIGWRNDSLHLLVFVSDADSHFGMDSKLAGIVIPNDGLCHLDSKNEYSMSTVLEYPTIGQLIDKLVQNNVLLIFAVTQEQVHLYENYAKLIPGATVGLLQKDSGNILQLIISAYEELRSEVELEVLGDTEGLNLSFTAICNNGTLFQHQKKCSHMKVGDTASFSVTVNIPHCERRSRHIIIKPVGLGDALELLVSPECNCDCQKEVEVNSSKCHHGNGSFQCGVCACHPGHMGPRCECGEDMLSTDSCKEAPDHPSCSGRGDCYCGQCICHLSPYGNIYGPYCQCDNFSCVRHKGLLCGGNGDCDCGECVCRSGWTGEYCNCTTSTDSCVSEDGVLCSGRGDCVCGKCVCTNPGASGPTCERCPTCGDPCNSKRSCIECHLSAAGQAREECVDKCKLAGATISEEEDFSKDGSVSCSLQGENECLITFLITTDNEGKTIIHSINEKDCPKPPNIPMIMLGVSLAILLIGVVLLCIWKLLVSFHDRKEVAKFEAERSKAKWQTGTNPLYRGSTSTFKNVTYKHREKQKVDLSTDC

[3] = test system: αvβ6 endocytosis in C76 cells; assay: Flow cytometry internalisation assay using TCEP reduction in C76 cells (inhibitors, siRNA); type: cell-based; set-up: internalisation of A20FMDV2 with Clathrin inhibitor: concentration or dose not given beside the values
[4] = test system: FMDV; details: cited from earlier work
[5] = test system: C76 cells; assay: Cell viability by flow cytometry and DAPI uptake; type: cell-based; details: 500nM of TCEP, DAPI uptake, mean, n = 2 (95% without TCEP)

For `CCCCC[C@@H](O)[C@H]1C(=O)O[C@H](C)[C@@H](O)/C=C/C=C/C=C/C=C/C=C(\C)[C@@H](O)C[C@H](O)C[C@H](O)C[C@H](O)C[C@H](O)C[C@H](O)C[C@@H]1O` [Filipin], the “number of cells migrating towards LAP” value [1] is listed as 280 ± 51, the “reduction in αvβ6 internalisation with caveolin inhibitor” value [2] is listed as “not statistically significant” and the “internalisation of αvβ6-bound Cy5-SS-(GS)5-bioA20FMDV2 with caveolin inhibitor” value ([3]; C76 cells pre-treated with 10 ug/ml Filipin, n = 3, p < 0.05) is listed as 19.7 ± 3.9%. For the same molecule, the “reduction in the number of cells with internalised αVβ6-A20FMDV2” value ([3]; C76 cells, caveolin inhibited (Filipin)) was 41%.

In the case of `OC[C@H]1O[C@@](CO)(O[C@H]2O[C@H](CO)[C@@H](O)[C@H](O)[C@H]2O)[C@@H](O)[C@@H]1O` [sucrose], the “reduction of αvβ6 dependent FMDV infection” value [4] is given as 95%.

Molecule `O=C(O)CCP(CCC(=O)O)CCC(=O)O` [TCEP, tris(2-carboxyethyl)phosphine] has a cells viable [5] of 68%.

For `CN(C)CCCN1c2ccccc2Sc2ccc(Cl)cc21` [Chlorpromazine], the “number of cells migrating towards LAP” value [1] was 225 ± 73, the “internalisation of αvβ6-bound Cy5-SS-(GS)5-bioA20FMDV2 with clathrin inhibitor” value ([3]; C76 cells pre-treated with 2 ug/ml Chlorpromazine, 20 min, n = 3, p < 0.05) was 39 ± 2.5% and the “internalisation of A20FMDV2 with Clathrin inhibitor” value ([3]; C76 cells, ARFGAP siRNA knockdown + clathrin inhibitor, n = 3) was 6.2 ± 3.5%. For the same molecule, the “internalisation of A20FMDV2 with Clathrin inhibitor” value ([3]; C76 cells, ASAP siRNA knockdown + clathrin inhibitor, n = 3) was 9.4 ± 9.9%, the “internalisation of A20FMDV2 with Clathrin inhibitor” value ([3]; C76 cells, CBL siRNA knockdown + clathrin inhibitor, n = 3) was 14 ± 8% and the “internalisation of A20FMDV2 with Clathrin inhibitor” value ([3]; C76 cells, CBLB siRNA knockdown + clathrin inhibitor, n = 3) was 7.4 ± 3.9%. For the same molecule, the “internalisation of A20FMDV2 with Clathrin inhibitor” value ([3]; C76 cells, CYTH2 siRNA knockdown + clathrin inhibitor, n = 3) was 13 ± 11.7% and the “internalisation of A20FMDV2 with Clathrin inhibitor” value ([3]; C76 cells, non-targeting (NT) siRNA + chlorpromazine, n = 3, not significant) was 14 ± 6.5%.
